The values below come from PubChem BioAssay (NCI).

Test systems include DU-145 prostate; HCC-2998 colon; HL-60(TB) leukemia; MOLT-4 leukemia; OVCAR-3 ovarian; SNB-75 CNS; SR leukemia.
Common to all, as to assay: growth of human tumour cells (NCI), 48 h

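Assay format: 96-well plates, 48-hour exposure. GI50 is the concentration that inhibits growth by half. Definition used: TGI = concentration required for complete inhibition of growth.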

Regarding `Oc1ccc(NC(=S)Nc2ccccc2)cc1`, the GI50 in the experiment with DU-145 prostate, with HCC-2998 colon, in the experiment with HL-60(TB) leukemia, with MOLT-4 leukemia, with OVCAR-3 ovarian and in the experiment on SNB-75 CNS was greater than 100 µM each time. Moreover, the GI50 in the experiment on SR leukemia was greater than 100 µM. Besides, the TGI in the experiment with DU-145 prostate, with HCC-2998 colon, in the experiment on HL-60(TB) leukemia, in the experiment on MOLT-4 leukemia, in the experiment on OVCAR-3 ovarian and in the experiment with SNB-75 CNS was greater than 100 µM throughout. This molecule showed a TGI in the experiment on SR leukemia greater than 100 µM.

`C=CC(=O)N[C@@H]1CN(c2nc(Nc3cn(C)nc3OC)c3ncn(C)c3n2)C[C@H]1F`: the GI50 was 4.02 µM in the experiment on DU-145 prostate; 47.8 µM with HCC-2998 colon; 27.8 µM in the experiment with HL-60(TB) leukemia; 39 µM with MOLT-4 leukemia; 19 µM in the experiment on OVCAR-3 ovarian; 19.4 µM in the experiment with SNB-75 CNS. The GI50 in the experiment on SR leukemia is 7.57 µM. Moreover, the TGI was greater than 91.7 µM in the experiment with DU-145 prostate; greater than 100 µM in the experiment on HCC-2998 colon; 78.5 µM with HL-60(TB) leukemia; greater than 100 µM in the experiment with MOLT-4 leukemia; greater than 88 µM in the experiment on OVCAR-3 ovarian; greater than 78 µM in the experiment on SNB-75 CNS. The same molecule registered a TGI with SR leukemia greater than 91.3 µM.

On to `O=c1cc(-c2ccc(Cl)cc2)[nH]c2ccccc12`, for which the GI50 with DU-145 prostate is 66.4 µM; with HCC-2998 colon it was greater than 100 µM; in the experiment with HL-60(TB) leukemia it was 5.62 µM; in the experiment on MOLT-4 leukemia it was 46.8 µM; with OVCAR-3 ovarian, 31.2 µM; in the experiment on SNB-75 CNS it was 37.4 µM. Further, in the experiment with SR leukemia, the GI50 was 4.76 µM. Moreover, the TGI in the experiment on DU-145 prostate, with HCC-2998 colon, in the experiment with HL-60(TB) leukemia, in the experiment with MOLT-4 leukemia, with OVCAR-3 ovarian and with SNB-75 CNS was greater than 100 µM each time. In the experiment on SR leukemia, this molecule displayed a TGI greater than 100 µM.

For the molecule `CCN(C(=O)N1CCN(c2cc3c(cc2F)c(=O)c(C(=O)O)cn3C2CC2)CC1)c1nc(-c2ccccc2)cs1`, the GI50 in the experiment on DU-145 prostate is 3.31 µM; in the experiment with HCC-2998 colon, 3.28 µM; in the experiment with HL-60(TB) leukemia it was 1.59 µM; in the experiment with OVCAR-3 ovarian, 2.61 µM; with SNB-75 CNS, 3.66 µM; with SR leukemia it was 1.54 µM. The TGI is greater than 100 µM with DU-145 prostate; 79.3 µM in the experiment on HCC-2998 colon; 4.35 µM with HL-60(TB) leukemia; 9.83 µM in the experiment on OVCAR-3 ovarian; 16.4 µM in the experiment on SNB-75 CNS; 9.92 µM in the experiment with SR leukemia.

`O=C(Nc1ccc(OS(=O)(=O)c2ccc(F)cc2)cc1)C12CC3CC(CC(C3)C1)C2`: the GI50 with DU-145 prostate is 13.9 µM; in the experiment with HCC-2998 colon, greater than 28.2 µM; in the experiment on HL-60(TB) leukemia, greater than 29 µM; with OVCAR-3 ovarian it was 8.64 µM; in the experiment with SNB-75 CNS it was 4.51 µM; in the experiment on SR leukemia it was 2.03 µM. The TGI in the experiment with DU-145 prostate is 99.2 µM; in the experiment on HCC-2998 colon, greater than 100 µM; in the experiment with HL-60(TB) leukemia, greater than 100 µM; in the experiment on OVCAR-3 ovarian, 46.3 µM; in the experiment with SNB-75 CNS, 26.8 µM; with SR leukemia, greater than 100 µM.

Turning to `O=C(NC1CCN(Cc2ccccc2)CC1)c1cc(-c2cccnc2)nc2ccc(Cl)cc12`, the GI50 was 8.78 µM with DU-145 prostate; 5.51 µM in the experiment on HCC-2998 colon; 8.27 µM with HL-60(TB) leukemia; 3.05 µM in the experiment on MOLT-4 leukemia; 11.3 µM in the experiment with OVCAR-3 ovarian; 2.18 µM in the experiment on SNB-75 CNS. Besides, the GI50 in the experiment on SR leukemia was 2.71 µM. Further, the TGI in the experiment on DU-145 prostate was greater than 100 µM; with HCC-2998 colon it was greater than 100 µM; in the experiment with HL-60(TB) leukemia, 45.2 µM; in the experiment on MOLT-4 leukemia it was 9.82 µM; in the experiment with OVCAR-3 ovarian, 28 µM; in the experiment with SNB-75 CNS it was 12.7 µM. This molecule had a TGI with SR leukemia of 12.9 µM.

With `COc1ccccc1-n1cnc(N)c1C(=O)c1cc(OC)c(OC)c(OC)c1`, the GI50 was 6.65 µM in the experiment with DU-145 prostate; 6.8 µM with HCC-2998 colon; 3.12 µM in the experiment on HL-60(TB) leukemia; 4.82 µM with MOLT-4 leukemia; 3.34 µM in the experiment on OVCAR-3 ovarian; 2.3 µM in the experiment with SNB-75 CNS. Besides, the GI50 in the experiment on SR leukemia is 1.92 µM. The TGI in the experiment with DU-145 prostate is greater than 100 µM; in the experiment with HCC-2998 colon, greater than 100 µM; in the experiment on HL-60(TB) leukemia it was greater than 100 µM; in the experiment with MOLT-4 leukemia it was greater than 100 µM; with OVCAR-3 ovarian, 19.3 µM; with SNB-75 CNS, 9.3 µM. Also, in the experiment with SR leukemia, the TGI is greater than 100 µM.

As to `OCC1NC(COC2OC(CO)C(O)C(O)C2O)C(O)C(O)C1O` (stereo unspecified), the TGI in the experiment with DU-145 prostate, with HCC-2998 colon, with HL-60(TB) leukemia, in the experiment with MOLT-4 leukemia, in the experiment on OVCAR-3 ovarian and in the experiment with SNB-75 CNS was greater than 100 µM throughout. Further, in the experiment with SR leukemia, the TGI is greater than 100 µM.

`CC/C=C\C[C@H]1C/C=C2/C(=O)C=C[C@H]2C/C=C\CCCC(=O)O1`: the GI50 with DU-145 prostate was 1.9 µM; in the experiment with HCC-2998 colon it was 2.37 µM; in the experiment with HL-60(TB) leukemia, 1.74 µM; in the experiment with MOLT-4 leukemia, 1.84 µM; in the experiment with OVCAR-3 ovarian, 1.65 µM; in the experiment on SNB-75 CNS it was 1.56 µM. In the experiment with SR leukemia, the GI50 was 1.34 µM. In addition, the TGI in the experiment with DU-145 prostate came to 7.39 µM; in the experiment on HCC-2998 colon, 8.43 µM; with HL-60(TB) leukemia, 12 µM; in the experiment with MOLT-4 leukemia it was 25.1 µM; in the experiment with OVCAR-3 ovarian, 5.94 µM; in the experiment with SNB-75 CNS, 8.74 µM. For the same molecule, in the experiment with SR leukemia, the TGI came to 21.8 µM.

Consider `C=C1CCC2CC1C(C(=O)c1c[nH]c3ccccc13)=NC2(C)C` (stereo unspecified), for which the TGI with DU-145 prostate, in the experiment on HCC-2998 colon, in the experiment with HL-60(TB) leukemia, with MOLT-4 leukemia, with OVCAR-3 ovarian and in the experiment on SNB-75 CNS was greater than 100 µM throughout. In the experiment with SR leukemia, this molecule had a TGI greater than 100 µM.

As for `Cc1cc(S(=O)(=O)/N=C(\N)Nc2cccc(O)c2)c(SCc2ccccc2)cc1Cl`, the GI50 was 24.4 µM in the experiment with DU-145 prostate; 32.6 µM with HCC-2998 colon; 12.9 µM with HL-60(TB) leukemia; 9.06 µM with MOLT-4 leukemia; 10.3 µM in the experiment on OVCAR-3 ovarian; 10.8 µM with SNB-75 CNS. Further, the GI50 in the experiment on SR leukemia is 16.2 µM. Moreover, the TGI was 81.8 µM with DU-145 prostate; 65.1 µM in the experiment with HCC-2998 colon; 62.9 µM in the experiment on HL-60(TB) leukemia; greater than 100 µM in the experiment on MOLT-4 leukemia; 26.2 µM in the experiment on OVCAR-3 ovarian; 26.5 µM in the experiment with SNB-75 CNS. The TGI in the experiment on SR leukemia is greater than 100 µM.
